# Measured values published in patent US20160158200A1, “Combinations of Hepatitis C Virus Inhibitors” (priority 2013, published 2016).
# System: HCV genotype-1a variant with glutamine 30 changed to glutamate in the NS5A protein
# Type: cell-based
# Settings: test compound titrated with BMS-790052 fixed at 200 nM; genotype 1a Q30E replicon
# In short: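 Synergy was assessed by combining several fixed amounts of an NS5A-targeting compound with a titration of the second compound of interest.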
row,Structure (SMILES),Fold-Synergistic 1a (Q30E)
1,"COC(C)(COCc1ccccc1)C(=O)N[C@H](c1nc(-c2ccc(-c3ccc(-c4c[nH]c([C@@H](NC(=O)C(C)(COCc5ccccc5)OC)C(C)(C)C)n4)cc3)cc2)c[nH]1)C(C)(C)C.O=C(O)C(F)(F)F.O=C(O)C(F)(F)F (single isomer, unassigned) [Compound W-232]",>100 fold
2,"COC(C)(CO)C(=O)N[C@H](c1nc(-c2ccc(-c3ccc(-c4c[nH]c([C@@H](NC(=O)C(C)(CO)OC)C(C)(C)C)n4)cc3)cc2)c[nH]1)C(C)(C)C (single isomer, unassigned) [Compound W-234]",>10 fold
3,"COC(C)(CO)C(=O)N[C@H](c1nc(-c2ccc(-c3ccc(-c4c[nH]c([C@@H](NC(=O)C(C)(CO)OC)C(C)(C)C)n4)cc3)cc2)c[nH]1)C(C)(C)C (single isomer, unassigned) [Compound W-237]",>100 fold
4,"COC(C)(CCOCc1ccccc1)C(=O)N[C@H](c1nc(-c2ccc(-c3ccc(-c4c[nH]c([C@@H](NC(=O)C(C)(CCOCc5ccccc5)OC)C(C)(C)C)n4)cc3)cc2)c[nH]1)C(C)(C)C (single isomer, unassigned) [Compound W-256b]",>100 fold
5,"COC(C)(CCO)C(=O)N[C@H](c1nc(-c2ccc(-c3ccc(-c4c[nH]c([C@@H](NC(=O)C(C)(CCO)OC)C(C)(C)C)n4)cc3)cc2)c[nH]1)C(C)(C)C (single isomer, unassigned) [Compound W-257]",>100 fold
6,"COC(C)(CCO)C(=O)N[C@H](c1nc(-c2ccc(-c3ccc(-c4c[nH]c([C@@H](NC(=O)C(C)(CCO)OC)C(C)(C)C)n4)cc3)cc2)c[nH]1)C(C)(C)C (single isomer, unassigned) [Compound W-258]",>100 fold
7,"COC(C)(CCO)C(=O)N[C@H](c1nc(-c2ccc(-c3ccc(-c4c[nH]c([C@@H](NC(=O)C(C)(CCO)OC)C(C)(C)C)n4)cc3)cc2)c[nH]1)C(C)(C)C (single isomer, unassigned) [Compound W-259]",>100 fold
8,"CC(COCc1ccccc1)(OCCF)C(=O)N[C@H](c1nc(-c2ccc(-c3ccc(-c4c[nH]c([C@@H](NC(=O)C(C)(COCc5ccccc5)OCCF)C(C)(C)C)n4)cc3)cc2)c[nH]1)C(C)(C)C (single isomer, unassigned) [Compound W-261b]",>100 fold
9,"CC(CO)(OCCF)C(=O)N[C@H](c1nc(-c2ccc(-c3ccc(-c4c[nH]c([C@@H](NC(=O)C(C)(CO)OCCF)C(C)(C)C)n4)cc3)cc2)c[nH]1)C(C)(C)C (single isomer, unassigned) [Compound W-270]",>100 fold
10,"CC(CO)(OCCF)C(=O)N[C@H](c1nc(-c2ccc(-c3ccc(-c4c[nH]c([C@@H](NC(=O)C(C)(CO)OCCF)C(C)(C)C)n4)cc3)cc2)c[nH]1)C(C)(C)C (single isomer, unassigned) [Compound W-271]",>100 fold
11,"CC(C)[C@H](NC(=O)C1CCCCO1)c1ncc(-c2ccc(-c3ccc(-c4cnc([C@@H](NC(=O)C5CCCCO5)C(C)C)[nH]4)cc3)cc2)[nH]1 (single isomer, unassigned) [Compound Y-55]",>10 fold
12,"CC(C)[C@H](NC(=O)C1CCCCO1)c1ncc(-c2ccc(-c3ccc(-c4cnc([C@@H](NC(=O)C5CCCCO5)C(C)C)[nH]4)cc3)cc2)[nH]1 (single isomer, unassigned) [Compound Y-57]",>100 fold
13,"CC(C)[C@H](N[S+]([O-])C(C)(C)C)c1ncc(-c2ccc(-c3ccc(-c4cnc([C@@H](N[S+]([O-])C(C)(C)C)C(C)C)[nH]4)cc3)cc2)[nH]1 (single isomer, unassigned) [Compound Y-59]",>100 fold
14,"CC1(C(=O)NC(c2nc(-c3ccc(-c4ccc(-c5c[nH]c(C(NC(=O)C6(C)CCC(F)(F)CO6)C(C)(C)C)n5)cc4)cc3)c[nH]2)C(C)(C)C)CCC(F)(F)CO1 (single isomer, unassigned) [Compound Y-67B]",>100 fold
